Here are results for 6 compounds from PubChem BioAssay (NCI).

Holding throughout (assay): growth of human tumour cells (NCI), 48 h
Assay [1] relates to UACC-257 melanoma.
The subject of assay [2] is CAKI-1 renal.
Assay [3] concerns SF-268 CNS.
The subject of assay [4] is MCF7 breast.
Assay [5] has as its system COLO 205 colon.
For assay [6], the system named is A549 NSCLC.
The test system of assay [7] is UACC-62 melanoma.
Assay [8] concerns SNB-19 CNS.
For assay [9], the system named is HS 578T breast.
Assay [10] deals with A498 renal.

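A five-concentration, 48-hour dose response in 96-well plates underlies each endpoint, interpolated linearly between surrounding concentrations. GI50 marks 50% less growth. TGI: concentration producing complete growth inhibition.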

Consider `C[C@@H]1CN(Cc2ccc(/C=C/c3n[nH]c4ccc5nc(-c6cn[nH]c6C(F)(F)F)c6c(c5c34)CCCC6)cc2)C[C@H](C)O1`, for which the GI50 in assay [1] was 13.3 µM; in assay [2] it was 2.29 µM; in assay [3], 4.21 µM; in assay [4], 1.53 µM; in assay [5], 3.21 µM; in assay [6], 2.56 µM. The GI50 in assay [7] is 5.73 µM; in [8], 10.2 µM; in [9], 2.05 µM; in [10] it was 1.21 µM. Moreover, the TGI in [1] came to 30.9 µM; in assay [2] it was 11.5 µM; in [3] it was 19.1 µM; in assay [4] it was 14.9 µM; in assay [5] it was 12 µM; in assay [6], 15 µM. For the same compound, the TGI was 19.3 µM in assay [7], 22.1 µM in assay [8], 10.8 µM in assay [9] and 6.51 µM in assay [10].

Consider `c1ccc(-c2n(Cc3ccc4ccccc4n3)c3ccccc3[n+]2Cc2ccc3ccccc3n2)cc1`, for which the GI50 is 0.252 µM in [1]; 1.36 µM in assay [2]; 0.333 µM in assay [3]; 0.274 µM in assay [4]; 0.181 µM in assay [5]; 0.346 µM in assay [6]. Moreover, the GI50 is 0.306 µM in [7], 0.277 µM in assay [8], 0.391 µM in assay [9] and 0.147 µM in assay [10]. In addition, the TGI in assay [1] was determined as 0.933 µM; in assay [2], 3.37 µM; in [3] it was 1.35 µM; in [4], 1.2 µM; in assay [5], 0.415 µM; in assay [6] it was 2.06 µM. The TGI in assay [7] came out at 1.24 µM; in assay [8] it was 1.31 µM; in [9], 2.28 µM; in assay [10], 1.02 µM.

Consider `Clc1ccccc1-c1nc2ccccc2[nH]1`, for which the GI50 in assay [1], in assay [2], in [3], in assay [4], in assay [5] and in assay [6] was greater than 100 µM each time. Further, the GI50 in assay [7] is greater than 100 µM; in [8] it was greater than 100 µM; in [9], greater than 100 µM; in assay [10], 59.2 µM. Further, the TGI in assay [1], in [2], in assay [3], in assay [4], in assay [5] and in [6] was greater than 100 µM in each case. Further, the TGI in assay [7], in assay [8], in assay [9] and in assay [10] was greater than 100 µM each time.

For `O=C1OCC2=C1C(c1cccc(F)c1)c1cc3c(cc1N2CCO)OCCO3` (stereo not given), the GI50 in assay [1] is greater than 20 µM; in assay [2], 0.144 µM; in assay [3], 0.381 µM; in [4], 0.13 µM; in [5], 0.204 µM; in assay [6], 0.32 µM. For the same compound, the GI50 was 0.112 µM in assay [7], 0.275 µM in [8], 0.179 µM in assay [9] and 0.111 µM in [10]. Besides, the TGI in assay [1] is greater than 50 µM; in assay [2] it was greater than 50 µM; in assay [3], greater than 50 µM; in assay [4] it was greater than 50 µM; in [5], 7.43 µM; in assay [6], greater than 50 µM. Besides, the TGI in assay [7] was greater than 50 µM; in [8], greater than 50 µM; in assay [9] it was 7.16 µM; in [10], 0.438 µM.

Regarding `CC(=O)NNC(=O)c1nn(-c2ccc(Cl)cc2)cc1OC(C)=O`, the GI50 is 87.8 µM in assay [1]; 9.3 µM in assay [2]; 8.85 µM in [3]; greater than 37 µM in assay [4]; 39.1 µM in [5]; 18.8 µM in assay [6]. For the same compound, the GI50 was 19.8 µM in assay [7], greater than 70.2 µM in assay [8], 40 µM in [9] and 22.2 µM in [10]. In addition, the TGI in [1] is greater than 100 µM; in assay [2], 82.6 µM; in assay [3], greater than 71.3 µM; in assay [4], greater than 78.4 µM; in assay [5] it was greater than 100 µM; in [6], greater than 100 µM. Also, the TGI in [7] was greater than 65.3 µM; in [8] it was greater than 100 µM; in [9], greater than 100 µM; in assay [10], 91.7 µM.

Regarding `COc1cc2c(cc1OCCCCC(=O)Nc1ccc(-c3nc4ccccc4s3)cc1)N=C[C@@H]1CCCN1C2=O`, the GI50 in [1] is 1.73 µM; in assay [2], 2.2 µM; in assay [3] it was 2.04 µM; in assay [4], 0.732 µM; in [5], 1.69 µM; in assay [6], 3.38 µM. Moreover, the GI50 in assay [7] is 1.73 µM; in [8] it was 2.68 µM; in assay [9], 2.75 µM; in assay [10], 1.87 µM. The TGI was determined as 3.81 µM in assay [1]; 5.96 µM in assay [2]; 5.66 µM in assay [3]; 3.43 µM in assay [4]; 3.07 µM in assay [5]; 11.2 µM in [6]. The TGI in assay [7] was 3.39 µM; in assay [8] it was 11.2 µM; in assay [9] it was 5.86 µM; in assay [10], 4.73 µM.
